According to patent US12492188B2, “1H-benzo[D]imidazole derivatives as TLR9 inhibitors for the treatment of fibrosis” (BRISTOL-MYERS SQUIBB COMPANY, priority 2020, dated 2025):
Read-outs that look alike come from different tables or passages of the source.

Columns and labels:
Format in all cases: cell-based
human TLR8 = target: T1, human TLR8 (Homo sapiens, UniProt Q9NR97); test: TLR8 inhibition reporter assay (HEK-Blue cells, secreted embryonic alkaline phosphatase reporter); details: HEK-Blue cells overexpressing human TLR8, stimulated with R848 15.9 μM; read-out: TLR 8 IC50
T1 construct: host or cells: HEK-Blue cells (HEK293-derived reporter line)
T1 sequence (Q9NR97 27-1041): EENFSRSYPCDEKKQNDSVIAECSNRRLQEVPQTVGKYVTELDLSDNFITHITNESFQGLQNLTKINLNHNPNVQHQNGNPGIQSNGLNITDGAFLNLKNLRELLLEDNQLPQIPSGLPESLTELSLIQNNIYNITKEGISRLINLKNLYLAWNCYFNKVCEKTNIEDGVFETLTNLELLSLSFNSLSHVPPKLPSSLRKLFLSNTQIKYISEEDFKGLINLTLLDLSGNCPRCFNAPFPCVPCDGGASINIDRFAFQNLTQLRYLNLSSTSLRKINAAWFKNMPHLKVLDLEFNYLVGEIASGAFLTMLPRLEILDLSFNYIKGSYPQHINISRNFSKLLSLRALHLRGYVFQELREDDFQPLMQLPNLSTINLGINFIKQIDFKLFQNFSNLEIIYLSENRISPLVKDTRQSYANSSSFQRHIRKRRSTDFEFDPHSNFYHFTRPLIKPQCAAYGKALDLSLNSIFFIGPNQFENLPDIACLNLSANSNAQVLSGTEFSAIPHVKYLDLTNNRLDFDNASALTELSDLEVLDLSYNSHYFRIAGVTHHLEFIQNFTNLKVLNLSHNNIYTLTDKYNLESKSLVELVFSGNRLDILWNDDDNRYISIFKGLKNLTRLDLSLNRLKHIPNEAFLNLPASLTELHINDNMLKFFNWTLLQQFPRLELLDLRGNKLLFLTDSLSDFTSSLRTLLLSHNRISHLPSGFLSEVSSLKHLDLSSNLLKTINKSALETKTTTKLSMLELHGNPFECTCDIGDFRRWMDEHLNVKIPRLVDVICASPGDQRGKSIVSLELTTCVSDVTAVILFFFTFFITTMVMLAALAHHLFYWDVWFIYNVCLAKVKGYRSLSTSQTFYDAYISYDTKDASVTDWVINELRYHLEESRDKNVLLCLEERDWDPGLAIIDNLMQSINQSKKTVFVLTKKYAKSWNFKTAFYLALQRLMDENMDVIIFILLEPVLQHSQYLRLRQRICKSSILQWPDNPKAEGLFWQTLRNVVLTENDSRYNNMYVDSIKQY
In short: (§1)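 HEK-Blue cells overexpressing the respective receptor, with an NF-κB/AP-1-driven SEAP reporter, were pre-treated with compound (0.05 nM–50 μM) for 30 min at room temperature. Stimulation used gardiquimod 7.5 μM (TLR7), R848 15.9 μM (TLR8) or ODN2006 5 nM (TLR9); SEAP was read after 22 h at 37 °C as percent inhibition.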

human TLR9 = target: T2, human TLR9 (Homo sapiens, UniProt Q9NR96); test: TLR9 inhibition reporter assay (HEK-Blue cells, secreted embryonic alkaline phosphatase reporter)
T2 construct: host or cells: HEK-Blue cells (HEK293-derived reporter line)
T2 sequence (Q9NR96 26-1032): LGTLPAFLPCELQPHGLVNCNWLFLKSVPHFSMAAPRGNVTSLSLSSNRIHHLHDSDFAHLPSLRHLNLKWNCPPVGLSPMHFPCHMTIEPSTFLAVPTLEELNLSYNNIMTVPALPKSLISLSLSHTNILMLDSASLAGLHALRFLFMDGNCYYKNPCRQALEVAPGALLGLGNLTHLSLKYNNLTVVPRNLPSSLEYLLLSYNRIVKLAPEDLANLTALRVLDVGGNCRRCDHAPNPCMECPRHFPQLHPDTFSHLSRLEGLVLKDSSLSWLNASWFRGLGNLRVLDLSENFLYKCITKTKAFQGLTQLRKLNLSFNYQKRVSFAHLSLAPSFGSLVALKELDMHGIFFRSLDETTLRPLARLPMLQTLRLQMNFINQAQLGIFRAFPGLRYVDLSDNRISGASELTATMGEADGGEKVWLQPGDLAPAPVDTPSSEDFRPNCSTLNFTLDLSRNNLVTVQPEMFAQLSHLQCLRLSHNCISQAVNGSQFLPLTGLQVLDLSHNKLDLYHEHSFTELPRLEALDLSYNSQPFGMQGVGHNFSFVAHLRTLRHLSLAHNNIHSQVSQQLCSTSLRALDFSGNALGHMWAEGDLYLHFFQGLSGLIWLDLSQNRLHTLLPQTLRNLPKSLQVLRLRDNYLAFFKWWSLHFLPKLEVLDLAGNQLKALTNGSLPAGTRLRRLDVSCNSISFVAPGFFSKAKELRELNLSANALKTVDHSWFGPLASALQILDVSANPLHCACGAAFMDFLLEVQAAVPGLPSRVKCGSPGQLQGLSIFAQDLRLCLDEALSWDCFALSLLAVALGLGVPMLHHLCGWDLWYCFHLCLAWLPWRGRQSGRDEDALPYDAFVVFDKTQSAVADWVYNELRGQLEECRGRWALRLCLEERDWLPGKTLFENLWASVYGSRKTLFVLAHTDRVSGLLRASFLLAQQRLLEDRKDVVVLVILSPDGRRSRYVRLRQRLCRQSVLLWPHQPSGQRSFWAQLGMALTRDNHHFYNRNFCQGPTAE
In short: as §1

human TLR7 = target: T3, human TLR7 (Homo sapiens, UniProt Q9NYK1); test: TLR7 inhibition reporter assay (HEK-Blue cells, secreted embryonic alkaline phosphatase reporter); details: HEK-Blue cells overexpressing human TLR7, stimulated with gardiquimod 7.5 μM; read-out: TLR 7 IC50
T3 construct: host or cells: HEK-Blue cells (HEK293-derived reporter line)
T3 sequence (Q9NYK1 27-1049): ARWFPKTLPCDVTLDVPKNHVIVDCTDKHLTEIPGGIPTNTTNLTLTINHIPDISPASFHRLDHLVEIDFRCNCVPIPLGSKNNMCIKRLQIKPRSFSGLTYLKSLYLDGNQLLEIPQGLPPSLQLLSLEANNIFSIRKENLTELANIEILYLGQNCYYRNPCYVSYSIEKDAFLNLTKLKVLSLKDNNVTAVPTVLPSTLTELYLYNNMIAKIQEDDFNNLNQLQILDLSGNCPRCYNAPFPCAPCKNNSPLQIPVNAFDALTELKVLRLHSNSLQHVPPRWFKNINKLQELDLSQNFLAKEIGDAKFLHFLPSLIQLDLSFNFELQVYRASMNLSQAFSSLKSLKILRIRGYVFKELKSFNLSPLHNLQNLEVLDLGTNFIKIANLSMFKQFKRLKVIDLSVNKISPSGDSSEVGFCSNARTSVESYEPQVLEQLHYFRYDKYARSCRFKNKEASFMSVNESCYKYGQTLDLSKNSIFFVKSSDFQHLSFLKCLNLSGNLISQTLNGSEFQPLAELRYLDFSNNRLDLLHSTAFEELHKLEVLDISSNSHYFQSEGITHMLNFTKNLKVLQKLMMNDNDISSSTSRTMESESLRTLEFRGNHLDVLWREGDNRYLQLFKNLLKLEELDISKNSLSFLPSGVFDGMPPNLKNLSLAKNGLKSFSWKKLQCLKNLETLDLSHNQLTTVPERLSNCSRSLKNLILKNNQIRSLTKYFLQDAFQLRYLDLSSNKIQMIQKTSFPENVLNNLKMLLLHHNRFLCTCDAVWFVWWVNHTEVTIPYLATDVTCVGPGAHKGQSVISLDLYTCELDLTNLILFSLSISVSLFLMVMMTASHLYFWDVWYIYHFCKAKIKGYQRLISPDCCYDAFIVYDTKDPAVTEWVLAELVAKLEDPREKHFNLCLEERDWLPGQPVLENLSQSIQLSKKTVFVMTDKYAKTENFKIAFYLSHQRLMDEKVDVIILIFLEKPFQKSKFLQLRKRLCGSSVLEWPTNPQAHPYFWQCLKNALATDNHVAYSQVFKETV
In short: as §1

[1] = HEK-Blue cells overexpressing human TLR9, stimulated with ODN2006 5 nM, read-out: TLR 9 IC50
[2] = HEK-Blue cells overexpressing human TLR9, stimulated with ODN2006 5 nM, 22 hour incubation, reporter readout
[3] = HEK-Blue human TLR9 reporter cells

Structure (SMILES)	IC50 (human TLR8) [nM]	IC50 (human TLR9) [nM]	IC50 (human TLR9; [1]) [nM]	IC50 (human TLR7) [nM]	IC50 (human TLR9; [2]) [nM]	IC50 (human TLR9; [3]) [nM]
Cn1c(-c2ccc(S(C)(=O)=O)cc2)nc2cc(C3CCN(C4CCN(CC5CC5)CC4)CC3)c(F)cc21 [Example 242, 5-(1′-(cyclopropylmethyl)-[1,4′-bipiperidin]-4-yl)-6-fluoro-1-methyl-2-(4-(methylsulfonyl)phenyl)-1H-benzo[d]imidazole]	> 50000	160	158	14200	–	–
Cn1c(-c2ccc(S(C)(=O)=O)cc2)nc2cc(F)c(C3CCN(C4CC5CCC(C4)N5C4COC4)CC3)cc21 (single isomer, unassigned) [Example 235, 5-fluoro-1-methyl-2-(4-(methylsulfonyl)phenyl)-6-(1-(8-(oxetan-3-yl)-8-azabicyclo[3.2.1]octan-3-yl)piperidin-4-yl)-1H-benzo[d]imidazole]	> 50000	1700	1730	> 50000	–	–
CCOP(=O)(OCC)c1ccc(-c2nc3c(C)cc(C4CCN(C5CCN(C(C)C)CC5)CC4)cc3n2C)cc1 [Example 420, diethyl(4-(6-(1′-isopropyl-[1,4′-bipiperidin]-4-yl)-1,4-dimethyl-1H-benzo[d]imidazol-2-yl)phenyl)phosphonate]	42200	–	136	> 50000	140	–
COc1ccc(-c2nc3cc(C4CCN(C5CCN(C(C)C)CC5)CC4)ccc3n2C(C)C)cc1OC [Example 6, 2-(3,4-dimethoxyphenyl)-1-isopropyl-5-(1′-isopropyl-[1,4′-bipiperidin]-4-yl)-1H-benzo[d]imidazole]	29000	–	191	2900	190	–
CC(C)N1C2CCC1CC(N1CCC(c3cc(F)c4nc(-c5ccc(S(C)(=O)=O)cc5)n(C5CC5)c4c3)CC1)C2 (single isomer, unassigned) [Example 117, 1-cyclopropyl-4-fluoro-6-(1-(8-isopropyl-8-azabicyclo[3.2.1]octan-3-yl)piperidin-4-yl)-2-(4-(methylsulfonyl)phenyl)-1H-benzo[d]imidazole]	> 50000	–	–	2200	71	–
Cn1c(-c2ccc(S(C)(=O)=O)cc2)nc2ccc(C3CCN(C4CCCN(C5COC5)CC4)CC3)c(F)c21 (stereo not drawn) [Example 314, 7-fluoro-1-methyl-2-(4-(methylsulfonyl)phenyl)-6-(1-(1-(oxetan-3-yl)azepan-4-yl)piperidin-4-yl)-1H-benzo[d]imidazole]	> 50000	–	192	6100	–	190
CS(=O)(=O)c1ccc(-c2nc3ccc(C4CCN(C5CCN(C6CCC6)CC5)CC4)c(F)c3[nH]2)cc1 [Example 180, 6-(1′-cyclobutyl-[1,4′-bipiperidin]-4-yl)-7-fluoro-2-(4-(methylsulfonyl)phenyl)-1H-benzo[d]imidazole]	> 50000	25	–	> 50000	–	–
Cn1c(-c2ccc(S(C)(=O)=O)cc2)nc2c(F)cc(C3CCN(C4CC5CCC(C4)N5C4CCOCC4)CC3)cc21 (single isomer, unassigned) [Example 289, 4-fluoro-1-methyl-2-(4-(methylsulfonyl)phenyl)-6-(1-(8-(tetrahydro-2H-pyran-4-yl)-8-azabicyclo[3.2.1]octan-3-yl)piperidin-4-yl)-1H-benzo[d]imidazole]	> 50000	–	29	3200	–	29
Cc1cc(C2CCN(C3CC4CCC(C3)N4C3CCOCC3)CC2)cc2c1nc(-c1ccc(S(C)(=O)=O)cc1)n2C (single isomer, unassigned) [Example 161, 1,4-dimethyl-2-(4-(methylsulfonyl)phenyl)-6-(1-(8-(tetrahydro-2H-pyran-4-yl)-8-azabicyclo[3.2.1]octan-3-yl)piperidin-4-yl)-1H-benzo[d]imidazole]	> 25000	210	211	> 25000	–	–
COc1ccc(-c2nc3cc(C4CCN(C5CCN(C(C)C)CC5)CC4)c(C(F)(F)F)cc3[nH]2)cc1OC [Example 10, 2-(3,4-dimethoxyphenyl)-5-(1′-isopropyl-[1,4′-bipiperidin]-4-yl)-6-(trifluoromethyl)-1H-benzo[d]imidazole]	> 50000	–	244	> 50000	240	–
COc1ccc(-c2nc3c(C)cc(C4CCN(C5CCN(C(C)C)CC5)CC4)cc3n2C)cc1F [Example 23, 2-(3-fluoro-4-methoxyphenyl)-6-(1′-isopropyl-[1,4′-bipiperidin]-4-yl)-1,4-dimethyl-1H-benzo[d]imidazole]	> 50000	–	159	8800	160	–
